Results from patent US4869904A, “Sustained release drug preparation” (Nisshin Flour Milling Co., Ltd., priority 1986, dated 1989).
Where a name gives a salt, the structure may show the parent alone.

Assay: Dissolution and release of powder samples in water (FIG. 2)
Type: physicochemical
Details: alone
Method: The formation of an inclusion complex of a medical compound with an alkylated cyclodextrin derivative in accordance with the process described above was confirmed by various methods such as powder X-ray diffraction, dissolution behavior, scanning electron microscope analysis, differential thermal analysis (DTA) and infrared absorption (IR). Inclusion complexes were prepared using diltiazem hydrochloride as an exemplary medical compound, and the behavior of dissolution and release of diltiazem from the inclusion complex in the powder form, as well as the behavior of dissolution and release of diltiazem from compressed tablets containing the inclusion complex were determined in order to confirm the complexing reaction and to evaluate the sustained release property, respectively. Further, the inclusion complex was administered orally to rats, and changes in the plasma concentration of the medical compound were then measured. While taking the determined dissolution and release behavior of the diltiazem into parallel consideration, the achievement of the sustained release property of the inclusion complex was confirmed. It was also proven that the dissolution and release rate of the medical compound, diltiazem, could be controlled at will, by using the ethylated cyclodextrins as the host compound for formation of inclusion complexes. […]

time to dissolution in water to an extent of 100%: about 5 minutes
SMILES: COc1ccc([C@@H]2Sc3ccccc3N(CCN(C)C)C(=O)[C@@H]2OC(C)=O)cc1 [diltiazem hydrochloride]
